# Measurements: patent publication US7507761B2, “Benzopyran derivatives, method of production and use thereof” (Universite de Liege, priority 2004, dated 2009)
# Read-outs that look alike come from different tables or passages of the source.
# Key:
# [1] = system: rat pancreatic islets; test: Insulin release from incubated rat pancreatic islets; assay type: cell-based; conditions: 10 μM compound, 16.7 mM glucose, % of control without drug; mean ± s.e.m. (n)
# Protocol: Measurement of insulin release from incubated rat pancreatic islets was performed according to the following procedure.
# Experiments were performed with pancreatic islets isolated from adult fed Wistar rats (Charles River Laboratories, Belgium).
# Groups of 10 islets, each derived from the same batch of islets, were preincubated for 30 minutes at 37° C. in 1 mL of a physiological salt medium (in mM: NaCl 115, KCl 5, CaCl2 2.56, MgCl2 1, NaHCO3 24) supplemented with 2.8 mM glucose, 0.5% (w:v) dialyzed albumin (Sigma) and equilibrated against a mixture of O2 (95%) and CO2 (5%). The islets were then incubated at 37° C. for 90 minutes in 1 mL of the same medium containing 16.7 mM glucose and, in addition, the required benzopyran derivative.
# The release of insulin was measured radioimmunologically according to Leclercq-Meyer et al., Endocrinology, 1985, 116, 1168-1174 using rat insulin as a standard.
# Residual insulin secretion was expressed as a percentage of the value recorded in control experiments (100%); i.e. in the absence of drug and presence of 16.7 mM glucose. Measurement of 86Rb outflow from perifused rat pancreatic islets was performed according to the following procedure. Groups of 100 islets were incubated for 60 min in a medium containing 16.7 mM glucose and 86Rb (0.15-0.25 mM; 50 μCi/ml). After incubation, the islets were washed three times and then placed in a perifusion chamber. The perifusate was delivered at a constant rate (1.0 ml/min). From the 31st to the 90th min, the effluent was continuously collected over successive periods of 1 min each. An aliquot of the effluent (0.6 ml) was used for scintillation counting. At the end of the perifusion, the radioactive content of the islets was determined. The outflow of 86Rb (cpm/min) was expressed as a fractional outflow rate (% of instantaneous islet content/min; FOR).
# [2] = system: rat aorta rings; test: Measurement of tension in rat aorta rings (myorelaxant activity); assay type: cell-based; conditions: KCl-contracted rat aorta rings; concentration evoking 50% inhibition of plateau phase; mean ± s.e.m. (n); read-out: Myorelaxant activity ED50
# Protocol: Measurement of tension in rat aorta rings was performed according to the following procedure.
# Experiments were performed with aorta removed from adult fed Wistar rats (Charles River Laboratories, Belgium).
# A section of the thoracic aorta was cleared of adhering fat and connective tissue and was cut into transverse rings (3-4 mm long). The endothelium was removed and the segments suspended under 1.5 g tension in an organ bath containing 20 mL of a physiological solution (in mM: NaCl 118, KCl 4.7, CaCl2 2.5, NaHCO3 25, KH2PO4 1.2, MgSO4 1.2, glucose 5). The physiological solution was maintained at 37° C. and continuously bubbled with a mixture of O2 (95%) and CO2 (5%). Isometric contractions were measured with a force-displacement transducer. After 60 minutes of equilibration, the rings were exposed to KCl (30 or 80 mM). When the tension had stabilized, the chroman derivative was added to the bath at increasing concentrations until maximal relaxation (or until 300 µM). Some experiments were repeated in the continuous presence of 1 or 10 µM glibenclamide in the bathing medium.
# The relaxation response was expressed as the percentage of the contractile response to KCl. The ED50 values (concentration evoking 50% inhibition of the plateau phase induced by KCl) were assessed from dose-response curves using Datanalyst software (EMKA Technologies, France).
# [3] = system: rat pancreatic islets; conditions: cited from earlier work; for Residual insulin secretion (%) [10 μM]: 10 μM compound, published results (footnotes b, c)
SMILES,Residual insulin secretion (%) [10 μM] [1],further results
"CC1(C)Oc2ccc(C#N)cc2C(N2CCCC2=O)C1O (stereo not drawn) [Cromakalim, cromakalim]",94.7 ± 4.3 (24) %,"EC50 [2]: 0.13 ± 0.01 µM; Activity as an inhibitor of insulin secretion (in words) ([3]; background statement, reflects poor activity as PCO on pancreatic KATP channels): poorly active"
"CC1=NS(=O)(=O)c2cc(Cl)ccc2N1 [Diazoxide, diazoxide]",,Residual insulin secretion (%) [10 μM] [3]: 71.7 ± 2.8 (38)^b %
"Cc1cccc(NC(=S)NC2CC(C)(C)Oc3ccc(F)cc32)c1 (stereo not drawn) [Example 4, R/S-3,4-Dihydro-2,2-dimethyl-6-fluoro-4-(3-methylphenylaminothiocarbonylamino)-2H-1-benzopyran]",53.1 ± 3.6%,
"Cc1ccc(NC(=S)NC2CC(C)(C)Oc3ccc(Cl)cc32)cc1 (stereo not drawn) [Example 8, R/S-6-Chloro-3,4-dihydro-2,2-dimethyl-4-(4-methylphenylaminothiocarbonylamino)-2H-1-benzopyran]",32.8 ± 1.9%,
"COc1cccc(NC(=S)NC2CC(C)(C)Oc3ccc(F)cc32)c1 (stereo not drawn) [Example 22, R/S-3,4-Dihydro-2,2-dimethyl-6-fluoro-4-(3-methoxyphenylaminothiocarbonylamino)-2H-1-benzopyran]",52.0 ± 2.3%,
"CC1(C)CC(NC(=S)Nc2cccnc2)c2cc(Br)ccc2O1 (stereo not drawn) [Example 42, R/S-6-Bromo-3,4-dihydro-2,2-dimethyl-4-(3-pyridylaminothiocarbonylamino)-2H-1-benzopyran]",44.3 ± 2.8%,
"CC1(C)CC(NC(=O)Nc2cccc(Cl)c2)c2cc(F)ccc2O1 (stereo not drawn) [Example 77, R/S-4-(3-Chlorophenylaminocarbonylamino)-3,4-dihydro-2,2-dimethyl-6-fluoro-2H-1-benzopyran]",28.0 ± 1.5%,
"CC1(C)CC(NC(=O)Nc2ccc(Cl)cc2)c2cc(Br)ccc2O1 (stereo not drawn) [Example 82, R/S-6-Bromo-4-(4-chlorophenylaminocarbonylamino)-3,4-dihydro-2,2-dimethyl-2H-1-benzopyran]",25.7 ± 1.5%,
"CC(N/C(=N\C#N)Nc1ccncc1)C(C)(C)C (stereo not drawn) [Pinacidil, pinacidil]",,EC50 [2]: 0.35 ± 0.02 µM; Residual insulin secretion (%) [10 μM] [3]: 96.0 ± 4.2 (20)^c %
